Reference: patent US6692927B2, “Bax degradation involvement in tumor survival and progression” (University of South Florida, priority 2000, dated 2004)
Where a SMILES comes first, the peptide text is derived from it. [ ]: non-standard residue; d: D form. The star is where a group is joined. Nva = CCC[C@H](N)C(=O)O; Cbz = O=C(OCc1ccccc1)*

Legend:
Bax degradation activity = experiment: cell-free Bax (or Bcl-2) degradation assay with extracts of inhibitor-pretreated cells; type: cell-based, human
Procedure: FIGS. 9A-9F show Bax degradation depends on ubiquitination, proteasome and ATP. (FIG. 9A) Jurkat cells (0 h) were treated with either 50 μM LLnV or 10 μM lactacystin, followed by preparation of Bax immunoprecipitates (with clone 6A7), which were immunoblotted with an ubiquitin antibody. Positions of putative ubiquitinated Bax proteins (p47, p55) are indicated at left. The nature of the ˜30 kDa and ˜84 kDa remains unclear. (FIG. 9B) The [^35S]-labeled Bax (upper) or Bcl-2 (lower) protein (1 μl) were incubated at 37° C. for 2 h with either buffer Z only (lane 1) or […] protein extract of MCF-7 cells grown exponentially (lane 2) or pretreated for 8 h with […] LLnV (lane 3). (FIG. 9C) The [^35S]-labeled Bax protein (1 μl) was incubated with either buffer Z only (lane 1) or 100 μg MCF-7 cell lysate at 37° C. for 4 h, in the presence of an indicated inhibitor (100 mM; lanes 3-8) or an equal volume of DMSO (lane 2) in buffer Z. A weak band of ˜16 kDa (indicated by an arrow) is probably an intermediate product of proteasome-mediated Bax degradation. (FIG. 9D) The proteasome in MCF-7 whole cell lysate (W lys, lane 1) was precipitated by using either ultraspin (ULS) or a proteasome subunit a6 antibody (IP). Both supernatant (lanes 2, 4) and pellet (lanes 3, 5) fractions were examined by Western blot assay using antibody to the proteasome a6 subunit (MW 33 kDa). (FIG. 9E) Bax degradation assay was performed as in FIG. 9B, with addition of buffer Z (lane 1) or 100 μg protein from MCF-7 whole cell lysate (lane 2), ultraspun supernatant (lane 3) or plus the pellet (lane 4), immunodepleted supernatant (lane 5) or plus a purified 20S proteasome ([…]; lane 6), or the purified proteasome alone (2 μg; lane 7). (FIG. 9F) Bax degradation assay was performed as in FIG. 9B, in the absence (lane 3) or presence of 10 mM ATP (lane 2) or 10 mM ATP-y-S (lane 4).
In vitro Bax Degradation Assay: Human Bax-a cDNA subcloned into pcDNA3 was a gift from Dr. Hong-gang Wang. Human full length of bcl-2-a cDNA was cloned from Jurkat T cells and subcloned into pcDNA3.1(−) as described+. Both bax and bcl-2 plasmids were used for coupled in vitro transcription/translation (Promega; Madison, Wis.) in the presence of [^35S]methionine (Amersham Pharmacia Biotech; Piscataway, N.J.). Protein extracts were prepared from either MCF-7 cells or prostate tumor tissues in buffer Y (50 mM Tris-HCl, pH 7.4, 250 mM NaCl, 1% Triton X-100, 0.1% SDS, 1 mM EDTA), and used for Bax (or Bcl-2) degradation assay. […]

MCF-7 cells = experiment: Bax level and PARP cleavage in MCF-7 cells; type: cell-based, human; settings: LLnV
Excerpt: Levels of BDA predict levels of Bax and consequently influence sensitivity of human cancer cells to proteasome inhibitor-induced apoptosis. Basal level of Bax protein in SV40-transformed WI-38 cells (VA13) was several-fold higher than that of human breast cancer MCF-7 cells (FIG. 1E, top panel, lanes 1 vs. 3). This is due to a much lower level of BDA in VA13 cells than in MCF-7 cells (FIG. 1E, lower panel, lanes 1 vs. 3). This conclusion is further confirmed by using increased amounts of protein extracts of each cell line in the cell-free BDA assay (FIG. 4A, top panel). […] In contrast, when MCF-7 cells were treated under the same conditions, Bax levels were not increased; PARP was cleaved only after 24 hours treatment, which is Bax-independent (FIG. 4B, lanes 6-9). Therefore, although highly preliminary, it appears that levels of BDA determine levels of Bax and consequently affect responsiveness of human cancer cells to proteasome inhibition-induced apoptosis.

[1] = Jurkat T cells pretreated with LLnV (50 µM, 8 hours)

CCC[C@@H](C=O)NC(=O)[C@H](CC(C)C)NC(=O)[C@H](CC(C)C)NC(=O)OCc1ccccc1 [LLnV] (Cbz-Leu-Leu-[Nva]-aldehyde)
Bax degradation activity in the cell extract (Bax degradation activity; [1]): inhibited
levels of labeled Bcl-2 after in vitro incubation (Bax degradation activity; [1]): no effects
cell-free Bax degradation activity (Bax degradation activity; MCF-7 cells pretreated for 8 h with 50 mM LLnV (FIG. 9B legend)): inhibited
BDA inhibition, VA-13 compared with MCF-7 (Bax degradation activity; cells pretreated with LLnV): a greater inhibition was observed in VA-13 than in MCF-7 cells
time after which PARP was cleaved (MCF-7 cells; Bax-independent): 24 h
Bax levels (MCF-7 cells; same conditions as VA-13): not increased
